Laboratory results published in article doi:10.1101/2025.07.20.665728 (bioRxiv, 2025).

Legend:
Format in all cases: cell-based
[1] = test system: SKW-3 cells expressing MBV28 (TRAV1-2/TRBV28) TCR; test: MAIT cell activation assay, SKW-3 MBV28 TCR co-cultured with C1R.MR1; conditions: SKW-3 MBV28, ligand alone
Method: (§1) Next, we explored whether RF catabolites could activate SKW-3 cells expressing two different MAIT TCRs. Distinct responses of T cells expressing TCRs with varying TRBV chain usage reinforces the role of Vβ in modulating MAIT responses to various ligands ([Chancellor et al., 2023]; [Gherardin et al., 2016]; [Seneviratna et al., 2022]).The surface expression of CD69 was measured as a marker for activation of cells expressing the AF-7 (TRAV1-2/TRBV6-1) or MBV28 (TRAV1-2/TRBV28) TCRs after co-culture with C1R.MR1 cells and the ligands.
(§2) C1R.MR1 cells (1 x 10^5) were initially stained with CTV for 15 minutes and then incubated with RF catabolites for 20 h. […] Cells were subsequently stained with PE-Cy7-conjugated anti-CD69 (BD; 1:100) and PE-labelled anti-MR1 (26.5 clone; BD; 1:100), before analysis on LSRFortessa (BD Biosciences) flow cytometer. Activation of SKW-3-MAIT cells was reflected by the cell-surface CD69 expression.

[2] = test system: SKW-3 cells expressing AF-7 (TRAV1-2/TRBV6-1) TCR; test: MAIT cell activation assay, SKW-3 AF-7 TCR co-cultured with C1R.MR1; conditions: SKW-3 AF-7, ligand alone
Method: as §1, §2

MAIT cells in human PBMC [3] = test: Primary MAIT activation (CD69) in PBMCs; conditions: 16 h, ligand alone
MAIT cells in human PBMC [4] = test: MAIT cell proliferation in CTV-labeled PBMCs; conditions: day 7, 5-OP-RU 10 μM, RF ligands 100 μM
C1R.MR1^R9H cells = test: Cell surface MR1 R9H quantification, C1R.MR1^R9H
Excerpt: We then tested the effect of the RF catabolites on the expression of two mutant versions of MR1 termed MR1^R9H ([Howson et al., 2020]) and MR1^K43A ([Reantragoon et al., 2013]). First, we tested the MR1^R9H mutant ([Howson et al., 2020]) which represents a rare, natural human polymorph. […] When C1R. […] Next, we tested sought to understand how the previously characterised Lys43A mutation affects ligand binding. […] While this is in line with the ability of these ligands to bind MR1, the reason for MR1^K43A cell surface accumulation is less clear. The most likely explanation is that these ligands bind ER-resident MR1^K43A, in line with our data using wild-type MR1; however, because the K43A mutation results in spontaneous MR1 surface egress, the presence of these stabilising ligands promotes enhanced trafficking and/or retention at the cell surface. We cannot rule out however that the ligands may also bind directly to surface MR1^K43A and slow down the recycling from cell surface.
The level of MR1 expressed on the cell surface was measured after the exposure to the investigated ligands as previously described ([Awad et al., 2020a]; [Wang et al., 2022a]). […] The PE fluorescence intensity reflects the surface MR1 level. The data was acquired with an LSRFortessa X-20 (BD Biosciences) and Diva software (BD Biosciences) and analyzed using FlowJo software (BD Biosciences).

C1R.MR1 cells [5] = test: Intracellular total folded MR1 by flow cytometry (8F2.F9); conditions: C1R.MR1, 100 μM, 16 h
C1R.MR1 cells [6] = test: Endo H treatment and western blot of intracellular MR1; conditions: C1R.MR1, 16 h; RF and catabolites 100 μM, Ac-6-FP 10 μM
Method: The downregulation of MR1 on the cell surface by the RF catabolites could be due to the depletion of the intracellular ER-resident MR1 pool, or by retention of MR1 in the ER, as shown for the DB28 ligand ([Salio et al., 2020]). To investigate this, C1R.MR1 cells were treated for 16 h with 100 μM of RF or RF catabolites, conditions which induce MR1 downregulation (Fig. 3A). Cells were lysed, and treated with endoglycosidase (Endo) H, to distinguish molecules that remain within the ER from those that have trafficked to the cell surface ([McWilliam et al., 2016]), then MR1 levels were assessed by immunoblotting (Fig. 3A).
Figure 3. […] S, Endo H–susceptible MR1; R, Endo H–resistant MR1. The Endo H–susceptible MR1 and Endo H–resistant MR1 fractions were quantified in at least two independent experiments. (b) Intracellular total MR1 level was also measured in C1R.MR1 cells by flow cytometry after treating the cells with the indicated ligands (100 μM) for 16h followed by permeabilization and staining with anti-MR1-PE (8F2.F9). Shown are the overlay histograms (top) and a bar chart depicting the geometric mean fluorescence intensity (gMFI) fold change of intracellular MR1 level (bottom) from three independent experiments performed in duplicates, with standard error (SEM) represented by the error bars. […]

Row | SMILES | CD69 surface expression (activation) [1] | CD69 surface expression (activation) [2] | CD69 expression on gated MAIT cells (MAIT cells in human PBMC [3]) | MAIT cell proliferation (MAIT cells in human PBMC [4]) | MR1^R9H surface level (C1R.MR1^R9H cells) | total level of folded MR1 (intracellular staining with 8F2.F9) (C1R.MR1 cells [5]) | Endo H-resistant MR1 (C1R.MR1 cells [6])
1 | Nc1nc2ncc(C=O)nc2c(=O)[nH]1 [6-FP, 6-formylpterin, reference compound] | moderately reduced basal CD69 levels | moderately reduced basal CD69 levels | – | – | – | – | –
2 | CC(=O)C=Nc1c(NC[C@H](O)[C@H](O)[C@H](O)CO)[nH]c(=O)[nH]c1=O [5-OP-RU, 5-(2-oxopropylideneamino)-6-D-ribitylaminouracil, reference compound] | induced strong activation | induced strong activation | induced robust CD69 upregulation | significantly proliferated | – | – | –
3 | CC(=O)Nc1nc2ncc(C=O)nc2c(=O)[nH]1 [Ac-6-FP, acetyl-6-FP, reference compound] | – | – | – | – | significantly increased | significantly increased | increase in MR1 of a higher molecular weight
